Key:
late watergrass = assay: Test Example 1: herbicidal activity, application before weed generation under submerged conditions (Table 16, symbol A); format: in vivo, late watergrass (Echinochloa oryzicola); conditions: 320 g/ha applied herbicide
Summary of the method: (§1)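 Alluvial soil was flooded to 4 cm depth, weed seeds were sown mixed and 2.5-leaf rice seedlings were transplanted. On sowing day, the compound's emulsion, diluted in water to a set dose, was applied to the water surface. Plants grew at 25–30 °C and were scored 0–5 after three weeks.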

Japanese bulrush [1] = assay: Test Example 1: herbicidal activity, application before weed generation under submerged conditions (Table 16, symbol B); format: in vivo, Japanese bulrush (Schoenoplectus juncoides); conditions: 320 g/ha applied herbicide
Summary of the method: as §1

Japanese bulrush [2] = assay: Test Example 2: herbicidal activity, application during weed generation under submerged conditions (Table 17, symbol B); format: in vivo, Japanese bulrush (Schoenoplectus juncoides); conditions: AAH 320 g/ha; application during weed generation, submerged conditions
Summary of the method: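 In this pot test, flooded alluvial soil (water depth 4 cm) holds all three species sown as a mixture. Once seedlings have one to two leaves, the compound's emulsion, thinned with water to the intended dose, is poured on the water; grading follows after three weeks on the earlier criteria.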

barnyard grass [3] = assay: Test Example 3: herbicidal effect by foliage application, Wagner pot (Table 18, symbol H); format: in vivo, barnyard grass (Echinochloa crus-galli); conditions: 320 g/ha
Summary of the method: (§2)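 Plants were sown in alluvial soil held under 0.1–0.5 cm standing water and grown 14 days in a greenhouse at 25–30 °C. An emulsifiable formulation, water-diluted to the set dose, was then sprayed onto the foliage, and effects were scored three weeks later using previously defined criteria.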

Chinese sprangletop = assay: Test Example 3: herbicidal effect by foliage application, Wagner pot (Table 18, symbol D); format: in vivo, chinese sprangletop (Leptochloa chinensis); conditions: 320 g/ha
Summary of the method: as §2

southern crabgrass = assay: Test Example 4: herbicidal effect by soil treatment (Table 19, symbol F); format: in vivo, southern crabgrass (Digitaria ciliaris); conditions: amount of applied herbicide 320 g/ha
Summary of the method: (§3)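 Herbicidal effect was rated 3 weeks after treatment, using the scoring criteria of an earlier test. The compound, formulated as an emulsion and diluted in water to a set herbicide amount, had been sprayed uniformly on soil over freshly sown seeds. Growth took place in a greenhouse at 25° C. to 30° C.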

barnyard grass [4] = assay: Test Example 4: herbicidal effect by soil treatment (Table 19, symbol H); format: in vivo, barnyard grass (Echinochloa crus-galli); conditions: amount of applied herbicide 320 g/ha
Summary of the method: as §3

windgrass [5] = assay: Test Example 4: herbicidal effect by soil treatment (Table 19, symbol L); format: in vivo, windgrass (Apera spica-venti); conditions: amount of applied herbicide 320 g/ha
Summary of the method: as §3

lambsquarters [6] = assay: Test Example 4: herbicidal effect by soil treatment (Table 19, symbol O); format: in vivo, lambsquarters (Chenopodium album); conditions: amount of applied herbicide 320 g/ha
Summary of the method: as §3

persian speedwell = assay: Test Example 4: herbicidal effect by soil treatment (Table 19, symbol R); format: in vivo, Persian speedwell (Veronica persica); conditions: amount of applied herbicide 320 g/ha
Summary of the method: as §3

barnyard grass [7] = assay: Test Example 5: herbicidal effect by foliage application, plastic box (Table 20, symbol H); format: in vivo, barnyard grass (Echinochloa crus-galli); conditions: foliage application, three weeks after application; for herbicidal effect grade, H: barnyard grass: 320 g/ha; for H: barnyard grass, herbicidal effect: AAH 320 g/ha
Summary of the method: (§4)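 Foliar spray test: emulsion formulation diluted in water to a set application rate, sprayed onto 14-day-old plants raised in diluvial soil at 25° C to 30° C under glass. Both herbicidal effect and crop effect rated visually three weeks later.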

blackgrass = assay: Test Example 5: herbicidal effect by foliage application, plastic box (Table 20, symbol J); format: in vivo, blackgrass (Alopecurus myosuroides); conditions: foliage application, three weeks after application; for herbicidal effect grade, J: blackgrass: 320 g/ha; for J: blackgrass, herbicidal effect: AAH 320 g/ha
Summary of the method: as §4

windgrass [8] = assay: Test Example 5: herbicidal effect by foliage application, plastic box (Table 20, symbol L); format: in vivo, windgrass (Apera spica-venti); conditions: foliage application, three weeks after application; for herbicidal effect grade, L: windgrass: 320 g/ha; for L: windgrass, herbicidal effect: AAH 320 g/ha
Summary of the method: as §4

redroot pigweed = assay: Test Example 5: herbicidal effect by foliage application, plastic box (Table 20, symbol N); format: in vivo, redroot pigweed (Amaranthus retroflexus); conditions: foliage application, three weeks after application; for herbicidal effect grade, N: redroot pigweed: 320 g/ha; for N: redroot pigweed, herbicidal effect: AAH 320 g/ha
Summary of the method: as §4

lambsquarters [9] = assay: Test Example 5: herbicidal effect by foliage application, plastic box (Table 20, symbol O); format: in vivo, lambsquarters (Chenopodium album); conditions: foliage application, three weeks after application; for herbicidal effect grade, O: lambsquarters: 320 g/ha; for O: lambsquarters, herbicidal effect: AAH 320 g/ha
Summary of the method: as §4

chickweed = assay: Test Example 5: herbicidal effect by foliage application, plastic box (Table 20, symbol P); format: in vivo, common chickweed (Stellaria media); conditions: foliage application, three weeks after application; for herbicidal effect grade, P: chickweed: 320 g/ha; for P: chickweed, herbicidal effect: AAH 320 g/ha
Summary of the method: as §4

Structure (SMILES): CCOc1cc(F)ccc1-c1sc2ccccc2c1-c1c(O)c(C)nn(C)c1=O [1-061]
- Herbicidal effect on A: late watergrass (grade 0-5) (late watergrass): 3 (Herbicidal rate of 40% or more and less than 70%)
- Herbicidal effect on B: Japanese bulrush (grade 0-5) (Japanese bulrush [1]): 3 (Herbicidal rate of 40% or more and less than 70%)
- herbicidal effect rating, B: Japanese bulrush (Japanese bulrush [2]): 3 (Herbicidal rate of 40% or more and less than 70%)
- herbicidal effect on H (barnyard grass), rating 0-5 (barnyard grass [3]): 5 (Herbicidal rate of 90% or more (almost completely withered))
- herbicidal effect on D (Chinese sprangletop), rating 0-5 (Chinese sprangletop): 4 (Herbicidal rate of 70% or more and less than 90%)
- herbicidal effect rating, F: southern crabgrass (southern crabgrass): 5 (Herbicidal rate of 90% or more (almost completely withered))
- herbicidal effect rating, H: barnyard grass (barnyard grass [4]): 4 (Herbicidal rate of 70% or more and less than 90%)
- herbicidal effect rating, L: windgrass (windgrass [5]): 5 (Herbicidal rate of 90% or more (almost completely withered))
- herbicidal effect rating, O: lambsquarters (lambsquarters [6]): 3 (Herbicidal rate of 40% or more and less than 70%)
- herbicidal effect rating, R: persian speedwell (persian speedwell): 5 (Herbicidal rate of 90% or more (almost completely withered))
- herbicidal effect grade, H: barnyard grass (barnyard grass [7]): 5 (Herbicidal rate of 90% or more (almost completely withered))
- herbicidal effect grade, J: blackgrass (blackgrass): 5 (Herbicidal rate of 90% or more (almost completely withered))
- herbicidal effect grade, L: windgrass (windgrass [8]): 5 (Herbicidal rate of 90% or more (almost completely withered))
- herbicidal effect grade, N: redroot pigweed (redroot pigweed): 5 (Herbicidal rate of 90% or more (almost completely withered))
- herbicidal effect grade, O: lambsquarters (lambsquarters [9]): 4 (Herbicidal rate of 70% or more and less than 90%)
- herbicidal effect grade, P: chickweed (chickweed): 5 (Herbicidal rate of 90% or more (almost completely withered))

Structure (SMILES): CCCC(=O)Oc1c(C)nn(C)c(=O)c1-c1c(-c2ccc(OC)c(OC)c2)sc2ccccc12 [1-073]
- Herbicidal effect on A: late watergrass (grade 0-5) (late watergrass): 5 (Herbicidal rate of 90% or more (almost completely withered))
- Herbicidal effect on B: Japanese bulrush (grade 0-5) (Japanese bulrush [1]): 4 (Herbicidal rate of 70% or more and less than 90%)
- herbicidal effect rating, B: Japanese bulrush (Japanese bulrush [2]): 5 (Herbicidal rate of 90% or more (almost completely withered))
- herbicidal effect on H (barnyard grass), rating 0-5 (barnyard grass [3]): 5 (Herbicidal rate of 90% or more (almost completely withered))
- herbicidal effect on D (Chinese sprangletop), rating 0-5 (Chinese sprangletop): 3 (Herbicidal rate of 40% or more and less than 70%)
- herbicidal effect rating, F: southern crabgrass (southern crabgrass): 5 (Herbicidal rate of 90% or more (almost completely withered))
- herbicidal effect rating, H: barnyard grass (barnyard grass [4]): 4 (Herbicidal rate of 70% or more and less than 90%)
- herbicidal effect rating, L: windgrass (windgrass [5]): 1 (Herbicidal rate of 5% or more and less than 20%)
- herbicidal effect rating, O: lambsquarters (lambsquarters [6]): 5 (Herbicidal rate of 90% or more (almost completely withered))
- herbicidal effect rating, R: persian speedwell (persian speedwell): 5 (Herbicidal rate of 90% or more (almost completely withered))
- herbicidal effect grade, H: barnyard grass (barnyard grass [7]): 5 (Herbicidal rate of 90% or more (almost completely withered))
- herbicidal effect grade, J: blackgrass (blackgrass): 4 (Herbicidal rate of 70% or more and less than 90%)
- herbicidal effect grade, L: windgrass (windgrass [8]): 0 (Herbicidal rate of 5% or less (almost no effect))
- herbicidal effect grade, N: redroot pigweed (redroot pigweed): 5 (Herbicidal rate of 90% or more (almost completely withered))
- herbicidal effect grade, O: lambsquarters (lambsquarters [9]): 5 (Herbicidal rate of 90% or more (almost completely withered))
- herbicidal effect grade, P: chickweed (chickweed): 5 (Herbicidal rate of 90% or more (almost completely withered))

Structure (SMILES): CCCC(=O)Oc1c(C)nn(C)c(=O)c1-c1c(-c2ccc3c(c2)OCCO3)sc2ccccc12 [1-090]
- Herbicidal effect on A: late watergrass (grade 0-5) (late watergrass): 5 (Herbicidal rate of 90% or more (almost completely withered))
- Herbicidal effect on B: Japanese bulrush (grade 0-5) (Japanese bulrush [1]): 4 (Herbicidal rate of 70% or more and less than 90%)
- herbicidal effect rating, B: Japanese bulrush (Japanese bulrush [2]): 3 (Herbicidal rate of 40% or more and less than 70%)
- herbicidal effect on H (barnyard grass), rating 0-5 (barnyard grass [3]): 5 (Herbicidal rate of 90% or more (almost completely withered))
- herbicidal effect on D (Chinese sprangletop), rating 0-5 (Chinese sprangletop): 1 (Herbicidal rate of 5% or more and less than 20%)
- herbicidal effect rating, F: southern crabgrass (southern crabgrass): 0 (Herbicidal rate of 5% or less (almost no effect))
- herbicidal effect rating, H: barnyard grass (barnyard grass [4]): 1 (Herbicidal rate of 5% or more and less than 20%)
- herbicidal effect rating, L: windgrass (windgrass [5]): 0 (Herbicidal rate of 5% or less (almost no effect))
- herbicidal effect rating, O: lambsquarters (lambsquarters [6]): 2 (Herbicidal rate of 20% or more and less than 40%)
- herbicidal effect rating, R: persian speedwell (persian speedwell): 5 (Herbicidal rate of 90% or more (almost completely withered))
- H: barnyard grass, herbicidal effect (barnyard grass [7]): 4 (Herbicidal rate of 70% or more and less than 90%)
- J: blackgrass, herbicidal effect (blackgrass): 2 (Herbicidal rate of 20% or more and less than 40%)
- L: windgrass, herbicidal effect (windgrass [8]): 0 (Herbicidal rate of 5% or less (almost no effect))
- N: redroot pigweed, herbicidal effect (redroot pigweed): 0 (Herbicidal rate of 5% or less (almost no effect))
- O: lambsquarters, herbicidal effect (lambsquarters [9]): 2 (Herbicidal rate of 20% or more and less than 40%)
- P: chickweed, herbicidal effect (chickweed): 4 (Herbicidal rate of 70% or more and less than 90%)

Structure (SMILES): COC(=O)Oc1c(C)nn(C)c(=O)c1-c1c(-c2ccc3c(c2)OCCO3)sc2ccccc12 [1-091]
- Herbicidal effect on A: late watergrass (grade 0-5) (late watergrass): 5 (Herbicidal rate of 90% or more (almost completely withered))
- Herbicidal effect on B: Japanese bulrush (grade 0-5) (Japanese bulrush [1]): 4 (Herbicidal rate of 70% or more and less than 90%)
- herbicidal effect rating, B: Japanese bulrush (Japanese bulrush [2]): 4 (Herbicidal rate of 70% or more and less than 90%)
- herbicidal effect on H (barnyard grass), rating 0-5 (barnyard grass [3]): 5 (Herbicidal rate of 90% or more (almost completely withered))
- herbicidal effect on D (Chinese sprangletop), rating 0-5 (Chinese sprangletop): 1 (Herbicidal rate of 5% or more and less than 20%)
- herbicidal effect rating, F: southern crabgrass (southern crabgrass): 3 (Herbicidal rate of 40% or more and less than 70%)
- herbicidal effect rating, H: barnyard grass (barnyard grass [4]): 5 (Herbicidal rate of 90% or more (almost completely withered))
- herbicidal effect rating, L: windgrass (windgrass [5]): 0 (Herbicidal rate of 5% or less (almost no effect))
- herbicidal effect rating, O: lambsquarters (lambsquarters [6]): 4 (Herbicidal rate of 70% or more and less than 90%)
- herbicidal effect rating, R: persian speedwell (persian speedwell): 5 (Herbicidal rate of 90% or more (almost completely withered))
- H: barnyard grass, herbicidal effect (barnyard grass [7]): 5 (Herbicidal rate of 90% or more (almost completely withered))
- J: blackgrass, herbicidal effect (blackgrass): 3 (Herbicidal rate of 40% or more and less than 70%)
- L: windgrass, herbicidal effect (windgrass [8]): 1 (Herbicidal rate of 5% or more and less than 20%)
- N: redroot pigweed, herbicidal effect (redroot pigweed): 5 (Herbicidal rate of 90% or more (almost completely withered))
- O: lambsquarters, herbicidal effect (lambsquarters [9]): 4 (Herbicidal rate of 70% or more and less than 90%)
- P: chickweed, herbicidal effect (chickweed): 5 (Herbicidal rate of 90% or more (almost completely withered))
